Laboratory results: article PMC9036794, “Improving astaxanthin production in Escherichia coli by co-utilizing CrtZ enzymes with different substrate preference” (Microbial Cell Factories, 2022)

How the values were obtained:
Format in all cases: cell-based
PCcrtZ [1] = target: T1, PCcrtZ (Paracoccus sp. PC1, UniProt Q44262); assay: astaxanthin formed in canthaxanthin-producing E. coli, HPLC; conditions: engineered E. coli Can004 background (Ast016, Ast017), shake flask, 30 °C; conversion to astaxanthin; whole-cell titre only
T1 construct: gene crtZ; synthesized gene, integrated into E. coli chromosome (manA site) under P-trc; whole-cell read-out
T1 sequence (Q44262 1-162): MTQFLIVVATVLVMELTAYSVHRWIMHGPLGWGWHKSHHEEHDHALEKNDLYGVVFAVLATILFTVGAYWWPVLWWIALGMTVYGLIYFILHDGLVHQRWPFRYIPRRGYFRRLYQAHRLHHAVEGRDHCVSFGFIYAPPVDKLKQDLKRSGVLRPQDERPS

PAcrtZ [2] = target: T2, PAcrtZ (Pantoea agglomerans, UniProt E9LFG1); assay: as above; conditions: engineered E. coli Can004 background (Ast014, Ast015), shake flask, 30 °C; conversion to astaxanthin; whole-cell titre only
T2 construct: gene crtZ; gene integrated into E. coli chromosome (manA site) under P-trc; whole-cell read-out
T2 sequence (E9LFG1 entry or part of it): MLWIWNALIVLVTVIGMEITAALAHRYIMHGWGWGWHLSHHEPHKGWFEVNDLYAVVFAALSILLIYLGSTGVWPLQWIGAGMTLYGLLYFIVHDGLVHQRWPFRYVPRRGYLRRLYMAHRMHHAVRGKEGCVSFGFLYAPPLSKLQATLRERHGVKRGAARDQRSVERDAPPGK

crtW* = target: T3, crtW* (Brevundimonas sp. NBRC 101024, UniProt Q4W8B8); assay: canthaxanthin formed in beta-carotene-producing E. coli, HPLC; conditions: engineered E. coli (Can003, Can004), shake flask, 30 °C; conversion to canthaxanthin; whole-cell titre only
T3 construct: integrated into E. coli chromosome (mgsA, lacZ sites) under P-trc; whole-cell read-out
T3 sequence (Q4W8B8 1-244): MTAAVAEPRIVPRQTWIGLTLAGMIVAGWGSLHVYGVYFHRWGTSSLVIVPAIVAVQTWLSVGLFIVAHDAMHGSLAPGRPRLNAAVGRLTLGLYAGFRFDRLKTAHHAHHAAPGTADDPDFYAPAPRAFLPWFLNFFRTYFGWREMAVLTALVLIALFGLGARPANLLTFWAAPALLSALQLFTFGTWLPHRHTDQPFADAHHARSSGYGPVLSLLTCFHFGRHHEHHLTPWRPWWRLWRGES

PCcrtZ [3] = target: T1, PCcrtZ; assay: zeaxanthin formed in beta-carotene-producing E. coli, HPLC; conditions: engineered E. coli CAR032 background (Zea001, Zea002), shake flask, 30 °C; conversion to zeaxanthin, weak; whole-cell titre only
From the text: zeaxanthin formed in beta-carotene-producing E. coli, HPLC on PCcrtZ | PCcrtZ from Paracoccus sp.

PAcrtZ [4] = target: T2, PAcrtZ; assay: as above; conditions: engineered E. coli CAR032 background (Zea003, Zea004), shake flask, 30 °C; conversion to zeaxanthin; whole-cell titre only

## CC1=C(/C=C/C(C)=C/C=C/C(C)=C/C=C/C=C(C)/C=C/C=C(C)/C=C/C2=C(C)C(=O)CCC2(C)C)C(C)(C)CCC1=O [canthaxanthin]
PCcrtZ [1]
  astaxanthin formed in canthaxanthin-producing E. coli, HPLC: Ast016 (Can004 with one copy of PCcrtZ) produced similar amounts of astaxanthin
PAcrtZ [2]
  astaxanthin formed in canthaxanthin-producing E. coli, HPLC: Ast014 (Can004 with one copy of PAcrtZ)

## CC1=C(/C=C/C(C)=C/C=C/C(C)=C/C=C/C=C(C)/C=C/C=C(C)/C=C/C2=C(C)CCCC2(C)C)C(C)(C)CCC1 [β-carotene]
crtW*
  canthaxanthin formed in beta-carotene-producing E. coli, HPLC: CrtW converts β-carotene into keto-carotenoids
PCcrtZ [3]
  zeaxanthin formed in beta-carotene-producing E. coli, HPLC: PCcrtZ from Paracoccus sp. PC1 showed weak activity in the conversion of β-carotene into zeaxanthin
PAcrtZ [4]
  zeaxanthin formed in beta-carotene-producing E. coli, HPLC: PAcrtZ from P. agglomerans therefore exhibited a substrate preference for β-carotene
